In patent publication US7517874B2 (priority 2007, dated 2009):
Read-outs that look alike come from different tables or passages of the source.

Assays:
rat CB2 receptor (rCB2) = target: T1, rat CB2 receptor (rCB2) (Rattus norvegicus, UniProt Q9QZN9); assay: cell-based; type: cell-based; details: for +/− RCB2: agonist or inverse agonist at rCB2
T1 sequence (Q9QZN9 1-360): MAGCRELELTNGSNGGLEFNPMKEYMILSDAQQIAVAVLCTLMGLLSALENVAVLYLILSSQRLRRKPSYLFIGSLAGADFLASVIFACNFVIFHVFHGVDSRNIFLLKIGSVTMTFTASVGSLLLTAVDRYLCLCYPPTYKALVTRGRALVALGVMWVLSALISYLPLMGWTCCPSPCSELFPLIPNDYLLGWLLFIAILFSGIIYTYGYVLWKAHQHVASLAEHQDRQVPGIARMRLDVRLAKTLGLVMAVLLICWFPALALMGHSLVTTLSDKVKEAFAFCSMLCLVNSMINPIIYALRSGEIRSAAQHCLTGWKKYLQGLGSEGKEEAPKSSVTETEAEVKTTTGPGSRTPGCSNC
Procedure, shortened: (§1)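 Readout: LANCE TR-FRET cAMP, back-calculated from a concurrent standard curve and scaled between forskolin-only and forskolin + 1 μM CP55,940 wells. EC50 and intrinsic activity came from four-parameter fits.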

[1] = target: human CB1 receptor (hCB1) (Homo sapiens, UniProt P21554); assay: cell-based; type: cell-based
Chain of human CB1 receptor (hCB1) (P21554 whole entry): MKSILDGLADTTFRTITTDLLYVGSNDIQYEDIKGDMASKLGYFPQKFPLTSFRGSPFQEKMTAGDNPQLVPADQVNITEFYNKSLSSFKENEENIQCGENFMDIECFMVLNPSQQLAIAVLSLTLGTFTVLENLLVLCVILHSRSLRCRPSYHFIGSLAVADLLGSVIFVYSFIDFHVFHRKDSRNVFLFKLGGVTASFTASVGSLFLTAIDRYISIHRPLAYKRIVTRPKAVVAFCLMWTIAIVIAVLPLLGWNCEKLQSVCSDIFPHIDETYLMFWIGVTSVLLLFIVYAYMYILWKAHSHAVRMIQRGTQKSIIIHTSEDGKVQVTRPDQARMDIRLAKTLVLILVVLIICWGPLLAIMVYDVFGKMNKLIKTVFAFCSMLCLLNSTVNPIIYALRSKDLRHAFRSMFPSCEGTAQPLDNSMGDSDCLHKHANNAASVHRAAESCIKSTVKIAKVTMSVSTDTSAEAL
Procedure, shortened: as §1

Compound	EC50 (rat CB2 receptor (rCB2))	EC50 [1]	+/− RCB2 (rat CB2 receptor (rCB2))	EC50 (rat CB2 receptor (rCB2); groups >100 nM-10 μM and >10 μM, cAMP, CHO-K1 rCB2, read-out: EC50 RCB2)	EC50 ([1]; groups >100 nM-10 μM and >10 μM, cAMP, CHO-K1 hCB1, read-out: EC50 HCB1)
CNC(=O)[C@@H](NC(=O)c1nc(-c2ccc(C(=O)N3CCOCC3)cc2)n2c1CN(C)CCC2)C(C)(C)C [Compound 401, (S)-N-(3,3-dimethyl-1-(methylamino)-1-oxobutan-2-yl)-8-methyl-3-(4-(morpholine-4-carbonyl)phenyl)-6,7,8,9-tetrahydro-5H-imidazo[1,5-a][1,4]diazepine-1-carboxamide]	> 10000 nM	> 10000 nM			
CNC(=O)[C@@H](NC(=O)c1nc(-c2ccncc2)n2c1CN(C)CCC2)C(C)(C)C [Compound 402, (S)-N-(3,3-dimethyl-1-(methylamino)-1-oxobutan-2-yl)-8-methyl-3-(pyridin-4-yl)-6,7,8,9-tetrahydro-5H-imidazo[1,5-a][1,4]diazepine-1-carboxamide]		> 10000 nM	+		
CNC(=O)[C@@H](NC(=O)c1nc(-c2ccccc2C(C)C)n2c1CN(C)CCC2)C(C)(C)C [Compound 403, (S)-N-(3,3-dimethyl-1-(methylamino)-1-oxobutan-2-yl)-3-(2-isopropylphenyl)-8-methyl-6,7,8,9-tetrahydro-5H-imidazo[1,5-a][1,4]diazepine-1-carboxamide]		> 10000 nM	+		
CNC(=O)[C@@H](NC(=O)c1nc(-c2ccc(OC)c(F)c2)n2c1CN(C)CCC2)C(C)(C)C [Compound 404, (S)-N-(3,3-dimethyl-1-(methylamino)-1-oxobutan-2-yl)-3-(3-fluoro-4-methoxyphenyl)-8-methyl-6,7,8,9-tetrahydro-5H-imidazo[1,5-a][1,4]diazepine-1-carboxamide]	> 10000 nM	> 10000 nM			
CNC(=O)[C@@H](NC(=O)c1nc(-c2cc(C(N)=O)ccc2F)n2c1CN(C)CCC2)C(C)(C)C [Compound 405, (S)-3-(5-carbamoyl-2-fluorophenyl)-N-(3,3-dimethyl-1-(methylamino)-1-oxobutan-2-yl)-8-methyl-6,7,8,9-tetrahydro-5H-imidazo[1,5-a][1,4]diazepine-1-carboxamide]				> 10000 nM	> 10000 nM
CNC(=O)c1cc(-c2nc(C(=O)N[C@H](C(=O)NC)C(C)(C)C)c3n2CCCN(C)C3)ccc1F [Compound 406, (S)-N-(3,3-dimethyl-1-(methylamino)-1-oxobutan-2-yl)-3-(4-fluoro-3-(methylcarbamoyl)phenyl)-8-methyl-6,7,8,9-tetrahydro-5H-imidazo[1,5-a][1,4]diazepine-1-carboxamide]		> 10000 nM	+		
CNC(=O)[C@@H](NC(=O)c1nc(-c2cccc(-c3nnc(C)o3)c2)n2c1CN(C)CCC2)C(C)(C)C [Compound 407, (S)-N-(3,3-dimethyl-1-(methylamino)-1-oxobutan-2-yl)-8-methyl-3-(3-(5-methyl-1,3,4-oxadiazol-2-yl)phenyl)-6,7,8,9-tetrahydro-5H-imidazo[1,5-a][1,4]diazepine-1-carboxamide]	> 10000 nM	> 10000 nM			
CNC(=O)c1ccc(-c2nc(C(=O)N[C@H](C(=O)NC)C(C)(C)C)c3n2CCCN(C)C3)cc1 [Compound 408]	> 10000 nM	> 10000 nM			
CNC(=O)[C@@H](NC(=O)c1nc(-c2cccc(S(C)(=O)=O)c2)n2c1CN(C)CCC2)C(C)(C)C [Compound 409]		> 10000 nM	−		
CNC(=O)[C@@H](NC(=O)c1nc(-c2ccc(S(=O)(=O)N(C)C)cc2)n2c1CN(C)CCC2)C(C)(C)C [Compound 410, (S)-N-(3,3-dimethyl-1-(methylamino)-1-oxobutan-2-yl)-3-(4-(N,N-dimethylsulfamoyl)phenyl)-8-methyl-6,7,8,9-tetrahydro-5H-imidazo[1,5-a][1,4]diazepine-1-carboxamide]	> 10000 nM	> 10000 nM			
CNC(=O)[C@@H](NC(=O)c1nc(-c2ccc(F)c(C(=O)O)c2)n2c1CN(C)CCC2)C(C)(C)C [Compound 411]	> 10000 nM	> 10000 nM			
CNC(=O)[C@@H](NC(=O)c1nc(-c2cccc(C(=O)N(C)C)c2)n2c1CN(C)CCC2)C(C)(C)C [Compound 412, (S)-N-(3,3-dimethyl-1-(methylamino)-1-oxobutan-2-yl)-3-(3-(dimethylcarbamoyl)phenyl)-8-methyl-6,7,8,9-tetrahydro-5H-imidazo[1,5-a][1,4]diazepine-1-carboxamide]	> 10000 nM	> 10000 nM			
CNC(=O)[C@@H](NC(=O)c1nc(-c2ccccc2-c2ccccc2)n2c1CN(C)CCC2)C(C)(C)C [Compound 413, (S)-3-(biphenyl-2-yl)-N-(3,3-dimethyl-1-(methylamino)-1-oxobutan-2-yl)-8-methyl-6,7,8,9-tetrahydro-5H-imidazo[1,5-a][1,4]diazepine-1-carboxamide]	> 10000 nM	> 10000 nM			
CNC(=O)[C@@H](NC(=O)c1nc(-c2ccc(C(C)(C)C)cc2)n2c1CN(C)CCC2)C(C)(C)C [Compound 414, (S)-3-(4-tert-butylphenyl)-N-(3,3-dimethyl-1-(methylamino)-1-oxobutan-2-yl)-8-methyl-6,7,8,9-tetrahydro-5H-imidazo[1,5-a][1,4]diazepine-1-carboxamide]		> 10000 nM	−		
CNC(=O)[C@@H](NC(=O)c1nc(-c2ccc(C(C)=O)cc2)n2c1CN(C)CCC2)C(C)(C)C [Compound 415, (S)-3-(4-acetylphenyl)-N-(3,3-dimethyl-1-(methylamino)-1-oxobutan-2-yl)-8-methyl-6,7,8,9-tetrahydro-5H-imidazo[1,5-a][1,4]diazepine-1-carboxamide]	> 10000 nM	> 10000 nM			
CNC(=O)[C@@H](NC(=O)c1nc(-c2cc(F)cc(C(N)=O)c2)n2c1CN(C)CCC2)C(C)(C)C [Compound 416, (S)-3-(3-carbamoyl-5-fluorophenyl)-N-(3,3-dimethyl-1-(methylamino)-1-oxobutan-2-yl)-8-methyl-6,7,8,9-tetrahydro-5H-imidazo[1,5-a][1,4]diazepine-1-carboxamide]		> 10000 nM	+		
CNC(=O)[C@@H](NC(=O)c1nc(-c2cccc3ccccc23)n2c1CN(C)CCC2)C(C)(C)C [Compound 417, (S)-N-(3,3-dimethyl-1-(methylamino)-1-oxobutan-2-yl)-8-methyl-3-(naphthalen-1-yl)-6,7,8,9-tetrahydro-5H-imidazo[1,5-a][1,4]diazepine-1-carboxamide]		> 10000 nM	+		
CNC(=O)[C@@H](NC(=O)c1nc(-c2cc(OC)cc(C(F)(F)F)c2)n2c1CN(C)CCC2)C(C)(C)C [Compound 418, (S)-N-(3,3-dimethyl-1-(methylamino)-1-oxobutan-2-yl)-3-(3-methoxy-5-(trifluoromethyl)phenyl)-8-methyl-6,7,8,9-tetrahydro-5H-imidazo[1,5-a][1,4]diazepine-1-carboxamide]		> 10000 nM	−		
CNC(=O)[C@@H](NC(=O)c1nc(-c2ccc(-c3ccccc3)c(F)c2)n2c1CN(C)CCC2)C(C)(C)C [Compound 419, (S)-N-(3,3-dimethyl-1-(methylamino)-1-oxobutan-2-yl)-3-(2-fluorobiphenyl-4-yl)-8-methyl-6,7,8,9-tetrahydro-5H-imidazo[1,5-a][1,4]diazepine-1-carboxamide]	> 10000 nM	> 10000 nM			
CNC(=O)[C@@H](NC(=O)c1nc(-c2ccc(NS(C)(=O)=O)cc2)n2c1CN(C)CCC2)C(C)(C)C [Compound 420, (S)-N-(3,3-dimethyl-1-(methylamino)-1-oxobutan-2-yl)-8-methyl-3-(4-(methylsulfonamido)phenyl)-6,7,8,9-tetrahydro-5H-imidazo[1,5-a][1,4]diazepine-1-carboxamide]		> 10000 nM	−		
CNC(=O)[C@@H](NC(=O)c1nc(-c2cccc(NS(C)(=O)=O)c2)n2c1CN(C)CCC2)C(C)(C)C [Compound 421, (S)-N-(3,3-dimethyl-1-(methylamino)-1-oxobutan-2-yl)-8-methyl-3-(3-(methylsulfonamido)phenyl)-6,7,8,9-tetrahydro-5H-imidazo[1,5-a][1,4]diazepine-1-carboxamide]		> 10000 nM	−		
CNC(=O)[C@@H](NC(=O)c1nc(-c2cccc(C(N)=O)c2)n2c1CN(C)CCC2)C(C)(C)C [Compound 422, (S)-3-(3-carbamoylphenyl)-N-(3,3-dimethyl-1-(methylamino)-1-oxobutan-2-yl)-8-methyl-6,7,8,9-tetrahydro-5H-imidazo[1,5-a][1,4]diazepine-1-carboxamide]	> 10000 nM	> 10000 nM			
CNC(=O)[C@@H](NC(=O)c1nc(-c2ccc(C(N)=O)cc2)n2c1CN(C)CCC2)C(C)(C)C [Compound 423, (S)-3-(4-carbamoylphenyl)-N-(3,3-dimethyl-1-(methylamino)-1-oxobutan-2-yl)-8-methyl-6,7,8,9-tetrahydro-5H-imidazo[1,5-a][1,4]diazepine-1-carboxamide]	> 10000 nM	> 10000 nM			
CNC(=O)[C@@H](NC(=O)c1nc(-c2cc(F)c(OC)cc2F)n2c1CN(C)CCC2)C(C)(C)C [Compound 424, (S)-3-(2,5-difluoro-4-methoxyphenyl)-N-(3,3-dimethyl-1-(methylamino)-1-oxobutan-2-yl)-8-methyl-6,7,8,9-tetrahydro-5H-imidazo[1,5-a][1,4]diazepine-1-carboxamide]		> 10000 nM	+		
